Measurements taken from US20240057617A1, “COMPOSITIONS AND METHODS FOR MEALYBUG MONITORING AND CONTROL” (The State of Israel, Ministry of Agriculture & Rural …, priority 2019, published 2024).

What was measured:
N. viridis males [1] = assay: Petri dish choice bioassay (arrestment of males on impregnated paper disks); type: in vivo, Nipaecoccus viridis; conditions: for mean number of males attracted to bait (arrested on paper disk): 10 ng on filter paper disk, 24 males released, counted after 1 h, mean ±SE, n=6
Experimental: Insects. N. viridis populations were collected from two citrus groves in Israel, in West Negev and the […] areas. These populations were used to establish a colony on sprouted potatoes (Solanum tuberosum) in a rearing room at 25±1° C., 50-60% relative humidity, and under a photoperiod of […]:10D. First stage larval instars were separated to a different cage and emerged adult males were removed manually each day (Levi-Zada et al. 2014). Adult females, 10 days after the last molt, were transferred to clean potato sprouts for further use in experiments. Behavioral Bioassays. The two putative female sex pheromone components and their 1:1 mixture were tested in 14-cm diameter glass Petri dish arenas (Mendel et al. 2012). Four filter paper disks (5-mm diameter, Whatman No. 1) impregnated with 1 μl n-hexane solutions containing 10 ng γ-necrodol (I), 10 ng γ-necrodyl isobutyrate (II), 5 ng of each I+II combined, and solvent only (control) were equally spaced in random order on the periphery of the arena in each test (n=6). Twenty-four males were released in each of the tests at the center of a Petri dish and after 1 h the number of males found on each paper disk was recorded. […] If a significant difference was found then post-hoc pairwise Conover tests with Bonferroni correction for multiple comparisons was performed (same PMCMR package).

N. viridis males [2] = assay: Flight bioassay with baited sticky traps in rearing room; type: in vivo, Nipaecoccus viridis; conditions: for average males caught on sticky trap: 20 μg in polyethylene vial, 12 days, mean ±SE, N=12; for statistical comparison of male catches per day with control: Kruskal-Wallis P=0.001, Conover's test at α=0.05
Experimental: Insects. N. viridis populations were collected from two citrus groves in Israel, in West Negev and the Galilee areas. These populations were used to establish a colony on sprouted potatoes (Solanum tuberosum) in a rearing room at 25±1° C., 50-60% relative humidity, and under a photoperiod of 14L:10D. First stage larval instars were separated to a different cage and emerged adult males were removed manually each day (Levi-Zada et al. 2014). Adult females, 10 days after the last molt, were transferred to clean potato sprouts for further use in experiments.
Flight bioassays of males compared the attractiveness of the female produced components in a 3×3 m^2 rearing room in which a colony of mealybugs, in several open plastic containers, was placed on the floor in the center. Traps consisting of white cards (18×10 cm^2) covered with 80% polyisobutene adhesive (Rimifoot, Rimi, Petah Tikva, Israel) were baited with 0.5 ml 5×8 mm ID×OD polyethylene vials (Just Plastic, Norfolk, UK) containing either 20 μg of γ-necrodol (I), γ-necrodyl isobutyrate (II), their mixture (I+II, 20 μg each), each in 200 μl n-hexane solution, or only 200 μl n-hexane control. The baited traps were hung at 1.2 m height, separated by 2.8 m and were rotated in position every day for 12 days. The Kruskal-Wallis rank sum test and post-hoc Conover tests above were used to compare catches on treatments for statistical differences.

γ-necrodyl isobutyrate [compound II]
mean number of males attracted to bait (arrested on paper disk) (N. viridis males [1]): 3.16±0.7 males | statistical comparison of male arrestment with control (N. viridis males [1]; Kruskal-Wallis, post-hoc Conover tests with Bonferroni correction, all P<0.0001): significantly different from I or control | average males caught on sticky trap (N. viridis males [2]): 654±178 males per day | statistical comparison of male catches per day with control (N. viridis males [2]): significantly more

CC1=C(C)C(C)(C)C(CO)C1 (stereo not shown) [compound I, 2,2,3,4-tetramethyl-3-cyclopentene-1-methanol]
mean number of males attracted to bait (arrested on paper disk) (N. viridis males [1]): 0.5±0.2 males | average males caught on sticky trap (N. viridis males [2]): 139±41 males per day | statistical comparison of male catches per day with control (N. viridis males [2]): not significantly different
